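Dose response: 5 concentrations. Exposure: 48 h. Format: 96-well plates. Endpoint: linear interpolation; highest concentration if not reached. Abbreviation: GI50, concentration required for 50% inhibition of growth. TGI is the concentration that stops growth completely.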
Legend:
Assay in all cases: NCI-60 cell line screen, 48 h
[1] = tested on: SW-620 colon
[2] = tested on: SR leukemia
[3] = tested on: NCI-H460 lung
[4] = tested on: OVCAR-8 ovarian
[5] = tested on: HT29 colon
[6] = tested on: MDA-MB-231 breast
[7] = tested on: MALME-3M melanoma
[8] = tested on: HCT-15 colon
[9] = tested on: ACHN renal
[10] = tested on: TK-10 renal

Row | Compound | TGI [1] | TGI [2] | TGI [3] | TGI [4] | TGI [5] | TGI [6] | TGI [7] | TGI [8] | TGI [9] | TGI [10] | GI50 [1] | GI50 [2] | GI50 [3] | GI50 [4] | GI50 [5] | GI50 [6] | GI50 [7] | GI50 [8] | GI50 [9] | GI50 [10]
1 | O=C(Nc1ccccc1)N(CCCCN(Cc1ccccc1)C(=O)Nc1ccccc1)Cc1ccccc1 | > 100 µM | > 100 µM | > 100 µM | > 100 µM | > 100 µM | > 100 µM | > 100 µM | > 100 µM | > 100 µM | > 100 µM |  |  |  |  |  |  |  |  |  | 
2 | CSC1=N/C(=C\c2ccco2)C(=O)N1CN1CCOCC1 | > 95.4 µM | > 92.6 µM | 27.7 µM | > 100 µM | > 100 µM | > 100 µM | > 80.7 µM | > 100 µM | > 89.4 µM | > 100 µM |  |  |  |  |  |  |  |  |  | 
3 | COC(=O)c1c(O)ccc2c1c1c(n2Cc2cccc(C)c2)C(=O)c2ccccc2C1=O | 32.4 µM | 21 µM | 16.7 µM | 21.9 µM | 14 µM | 35.3 µM | 34.1 µM | 24.2 µM | 24.5 µM | 25.2 µM |  |  |  |  |  |  |  |  |  | 
4 | O=C1/C(=N\S(=O)(=O)c2ccccc2)C([n+]2ccc(Cc3ccccc3)cc2)=C([O-])c2ccccc21 | 1.96 µM | > 100 µM | 2.22 µM | 8.06 µM | 1.49 µM | 9.89 µM | 1.73 µM | 3.36 µM | 4.33 µM | 6.2 µM |  |  |  |  |  |  |  |  |  | 
5 | COc1ccc(NC(C)=O)cc1N1C(=O)/C(=C\c2cc(OC)c(OC)c(OC)c2)SC1c1ccccc1 (stereo not given) | > 100 µM | > 100 µM | > 100 µM | > 100 µM | > 100 µM | > 100 µM | > 100 µM | > 100 µM | > 100 µM | > 100 µM |  |  |  |  |  |  |  |  |  | 
6 | O=C(c1cc(Cl)ccc1Cl)N1CCN(C(=O)c2cc(Cl)ccc2Cl)CC1 | > 100 µM | > 100 µM | > 100 µM | > 100 µM | > 100 µM | > 100 µM | > 100 µM | > 100 µM | > 100 µM | > 100 µM |  |  |  |  |  |  |  |  |  | 
7 | Cc1cc(N2CCCC2)nc(N(CCNc2ccnc3cc(Cl)ccc23)Cc2ccco2)n1 | 81.8 µM | 4.67 µM | > 100 µM | > 100 µM | > 100 µM | 23.7 µM | 80.7 µM | > 100 µM | > 100 µM | 31.3 µM | 2.6 µM | 1.8 µM | 2.99 µM | 4.35 µM | 1.68 µM | 3.14 µM | 4.13 µM | 3.19 µM | 6.53 µM | 5.46 µM
8 | O=C(OCCN=c1c2ccccc2ccc2ccccc12)c1ccc([N+](=O)[O-])cc1 | > 100 µM | > 100 µM | > 100 µM | > 100 µM | > 100 µM | > 100 µM | > 100 µM | > 100 µM | > 100 µM | > 100 µM |  |  |  |  |  |  |  |  |  | 
9 | Cc1c(NC(=O)CSC(=S)N2CCN(Cc3ccccc3)CC2)c(=O)n(-c2ccccc2)n1C | > 100 µM | > 100 µM | > 100 µM | > 100 µM | > 100 µM | > 100 µM | > 100 µM | > 100 µM | > 100 µM | > 100 µM |  |  |  |  |  |  |  |  |  | 
10 | COC1OC2COC1(OC)C1OC(C)(C)OC21 (stereo not given) | > 100 µM | > 100 µM | > 100 µM | > 100 µM | > 100 µM | > 100 µM | > 100 µM | > 100 µM | > 100 µM | > 100 µM |  |  |  |  |  |  |  |  |  | 
11 | C/C(Nc1ccc(F)cc1)=C1/CCOC1=O | > 100 µM | > 100 µM | > 100 µM | > 100 µM | > 100 µM | > 100 µM | > 100 µM | > 100 µM | > 100 µM | > 100 µM |  |  |  |  |  |  |  |  |  | 
12 | COc1ccc2c(c1)c(CC(=O)O)c(C)n2C(=O)c1ccc(Cl)cc1 | > 100 µM | > 100 µM | > 100 µM | > 100 µM | > 100 µM | > 100 µM | > 100 µM | > 100 µM | > 100 µM | > 100 µM |  |  |  |  |  |  |  |  |  | 
13 | O=c1[nH]nc(-c2ccccc2)n1/N=C/c1cccnc1 | > 100 µM | > 100 µM | > 100 µM | > 100 µM | > 100 µM | > 100 µM | > 100 µM | > 100 µM | > 100 µM | > 100 µM |  |  |  |  |  |  |  |  |  | 
14 | Oc1c([Si](c2ccccc2)(c2ccccc2)c2ccccc2)cc2ccccc2c1-c1c(O)c([Si](c2ccccc2)(c2ccccc2)c2ccccc2)cc2ccccc12 | > 100 µM | > 100 µM | > 100 µM | > 100 µM | > 100 µM | > 100 µM | > 100 µM | > 100 µM | > 100 µM | > 100 µM |  |  |  |  |  |  |  |  |  | 
15 | CCN(CC)c1ccc2cc(C(=O)Nc3cccc4ccccc34)c(=N)oc2c1 | > 100 µM | > 100 µM | > 100 µM | > 100 µM | > 100 µM | > 100 µM | > 100 µM | > 100 µM | > 100 µM | > 100 µM |  |  |  |  |  |  |  |  |  | 
16 | CC1=NN(c2nc(N)nc(/C(C#N)=C/c3cccn3-c3cc(Cl)cc(Cl)c3)n2)C(C)(C)C1 | > 100 µM | > 100 µM | > 100 µM | > 100 µM | > 100 µM | > 100 µM | > 100 µM | > 100 µM | > 100 µM | > 100 µM |  |  |  |  |  |  |  |  |  | 

From PubChem BioAssay (NCI)
